What all share (format): in vivo, human
Series [1] has as its system NPM1-mutated AML without FLT3 internal tandem duplication mutations. The experiment in a line: Dactinomycin single-agent treatment of a patient with NPM1-mutated AML (response). As for the experimental part:
(§1) A patient with NPM1-mutated AML without FLT3 internal tandem duplication mutations was treated with dactinomycin. Because dactinomycin lacks cardiotoxicity, a patient was selected for whom intensive chemotherapy was not appropriate owing to a low left ventricular ejection fraction (35%). […] Therefore, with the patient's consent, dactinomycin was administered as an off-label single agent (approved by the institutional review board at Perugia Hospital), at a dose of 12.5 μg per kilogram of body weight per day for 5 consecutive days, as recommended for low-risk gestational trophoblastic tumors. […] Four more cycles were administered for a total of six cycles, at intervals of 3 to 4 weeks.
The progressive decrease in NPM1 mutant transcripts (until the achievement of negativity for minimal residual disease) is reminiscent of dactinomycin-induced normalization of serum levels of human chorionic gonadotropin in patients with gestational trophoblastic tumors.

The subject of series [2] is refractory or relapsed NPM1-mutated AML. The series can be described thus: Dactinomycin treatment of six additional patients with refractory or relapsed NPM1-mutated AML. The settings on record: 15.0 μg per kilogram per day for 5 consecutive days, cycles. As for the experimental part: Six additional patients with refractory or relapsed NPM1-mutated AML were treated with cycles of dactinomycin at a dose of 15.0 μg per kilogram per day for 5 consecutive days.

Series [3] in a line: Adverse events and hematologic toxic effects during dactinomycin treatment of the patient. How it is done: as §1
The number of days with a hemoglobin level of less than 8 g per deciliter, severe thrombocytopenia (a platelet count of <20,000 per cubic millimeter), and severe neutropenia (a neutrophil count of <500 per cubic millimeter) are reported for cycles 1 through 6. A total of 8 units of red cells and 4 units of platelets were transfused during cycle 1, and 4 units of red cells and 1 unit of platelets were transfused during cycle 2.

The mark [4] stands for this setting: after two cycles of dactinomycin.

“Also recorded” adds a separate entry of the source. *1 amine or outer side, *2 acyl side, *3 side chain or, on linkers, in order; H or OH if unused. Where a SMILES comes first, the peptide text is derived from it. Bridges are numbered along the chain shown (N, C = ends). Roman numbers before positions name the chains, in order. [ ]: non-standard residue; d: D form. Actinocin(9to1) = Cc1c2oc3c(C)ccc(C(=O)[*:1])c3nc-2c(C(=O)[*:2])c(N)c1=O; NMeV = CN[CH](C(=O)O)C(C)C; Sar = CNCC(=O)O

The text below walks through data of US11337983B2, “Dactinomycin compositions and methods for the treatment of acute myeloid leukemia” (priority 2015, dated 2022).

Turning to `Nc1ncn([C@@H]2O[C@H](CO)[C@@H](O)[C@H]2O)c(=O)n1` [azacitidine], in series [1] (initial single cycle of azacitidine, before dactinomycin), the “Course of leukemia after prior therapy” value is reported as “Leukemia had progressed”.
For the compound `Cc1c2oc3c(C)ccc(C(=O)NC4C(=O)NC(C(C)C)C(=O)N5CCCC5C(=O)N(C)CC(=O)N(C)C(C(C)C)C(=O)OC4C)c3nc-2c(C(=O)NC2C(=O)NC(C(C)C)C(=O)N3CCCC3C(=O)N(C)CC(=O)N(C)C(C(C)C)C(=O)OC2C)c(N)c1=O` (stereo not shown) [dactinomycin, 2-amino-N,N′-bis(hexadecahydro-2,5,9-trimethyl-6,13-bis(1-methylethyl)-1,4,7,11,14-pentaoxo-1H-pyrrolo(2,1-I)(1,4,7,10,13)oxatetra-azacyclohexadecin-10-yl)-4,6-dimethyl-3-oxo-3H-phenoxazine-1,9-dicarboxamide] (I: TVP[Sar][NMeV] / II: TVP[Sar][NMeV]; ester I:1-I:C, II:1-II:C; linker I:N-II:N via Actinocin(9to1); configuration not given here), in series [1] (12.5 μg per kilogram per day for 5 consecutive days per cycle, patient), the “Morphologic and immunohistochemical (hematologic) complete remission” value is on record as “hematologic complete remission; also recorded: complete remission was achieved after two cycles of therapy”. In addition, in series [1] (setting [4]), the “Immunostaining with anti-NPM1 monoclonal antibody of bone marrow cells” value is “nucleus-restricted positivity for NPM1” and the “Leukemic blasts in bone marrow aspirate (MGG staining)” value is “less than 5%”. In series [1] (bone marrow samples, 12.5 μg/kg/day x 5 days per cycle), the “Molecular complete remission / negativity for minimal residual disease (quantitative RT-PCR for mutant copies of NPM1)” value is “Negativity for minimal residual disease was achieved after the fourth cycle; also recorded: molecular complete remission after the fourth cycle”. Further, the “Mutant copies of NPM1 in bone marrow samples (RT-PCR, copies per 100 copies of Abl)” value in series [1] (during dactinomycin treatment) is recorded as “progressive reduction in copies”. Besides, the “Duration of morphologic and molecular complete remission” value in series [1] (six cycles at intervals of 3 to 4 weeks) is 14 months. In addition, the “Hematologic complete remission (patients of six treated)” value in series [2] is listed as “achieved in two patients”. Further, the “Need for red-cell or platelet transfusions” value in series [3] (after cycle 2 (cycles 3 through 6)) is reported as “no need for blood transfusions; also recorded: No red-cell or platelet transfusions were necessary”. Further, in series [3] (cycle 1), the “Number of days with Hb <8 g/dl” value came to 3 days, the “Number of days with PLT <20000/mm^3” value came to 13 days, the “Number of days with PMN <500/mm^3” value turned out to be 26 days and the Platelets transfused stood at 4 units. Further, the Red cells transfused in series [3] (cycle 1) is recorded as 8 units. In addition, in series [3] (cycle 2), the “Number of days with Hb <8 g/dl” value worked out at 3 days, the “Number of days with PLT <20000/mm^3” value is 2 days, the “Number of days with PMN <500/mm^3” value came to 6 days and the Platelets transfused stood at 1 unit. This compound also displayed a Red cells transfused in series [3] (cycle 2) of 4 units. Besides, in series [3] (cycle 3), the “Number of days with Hb <8 g/dl” value is recorded as 0 days, the “Number of days with PLT <20000/mm^3” value worked out at 0 days and the “Number of days with PMN <500/mm^3” value is given as 4 days. In series [3] (cycle 4), the “Number of days with Hb <8 g/dl” value is reported as 0 days, the “Number of days with PLT <20000/mm^3” value is 0 days and the “Number of days with PMN <500/mm^3” value is reported as 4 days. For the same compound, in series [3] (cycle 5), the “Number of days with Hb <8 g/dl” value was determined as 0 days, the “Number of days with PLT <20000/mm^3” value is recorded as 0 days and the “Number of days with PMN <500/mm^3” value is listed as 4 days. Besides, in series [3] (cycle 6), the “Number of days with Hb <8 g/dl” value was 0 days, the “Number of days with PLT <20000/mm^3” value stood at 0 days and the “Number of days with PMN <500/mm^3” value is given as 3 days. Besides, the Skin adverse event result in series [3] (during cycle 2) was “superficial skin erosions”. Moreover, in series [3] (during cycles 1 and 2), the “Febrile neutropenia and thrombocytopenia (adverse event grade)” value stood at 4 grade. The “Oral mucositis (adverse event grade)” value in series [3] (during cycles 1 through 3) was 2 grade.
